From PubChem BioAssay (NCI)
Values joined by “and” are separate entries in the source; they are usually repeats but may differ in a detail not shown here. Equal values may be shown once.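 Following 48 hours of exposure in 96-well plates, responses at five concentrations were used to interpolate endpoints linearly. Abbreviation: GI50, concentration required for 50% inhibition of growth. TGI: total growth inhibition.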

Assays:
Assay in all cases: DTP human tumour cell line panel, 48 h
CCRF-CEM leukemia = test system: CCRF-CEM leukemia
HCT-116 colon = test system: HCT-116 colon
IGROV1 ovarian = test system: IGROV1 ovarian
M14 melanoma = test system: M14 melanoma
NCI-H460 lung = test system: NCI-H460 lung
SK-MEL-5 melanoma = test system: SK-MEL-5 melanoma
SN12C renal = test system: SN12C renal
SW-620 colon = test system: SW-620 colon
BT-549 breast = test system: BT-549 breast
SF-539 CNS = test system: SF-539 CNS

SMILES | TGI (CCRF-CEM leukemia) | TGI (HCT-116 colon) | TGI (IGROV1 ovarian) | TGI (M14 melanoma) | TGI (NCI-H460 lung) | TGI (SK-MEL-5 melanoma) | TGI (SN12C renal) | TGI (SW-620 colon) | GI50 (BT-549 breast) | TGI (BT-549 breast) | GI50 (CCRF-CEM leukemia) | GI50 (IGROV1 ovarian) | GI50 (SF-539 CNS) | TGI (SF-539 CNS) | GI50 (SK-MEL-5 melanoma) | GI50 (SN12C renal) | GI50 (SW-620 colon)
Cc1ccc(S(=O)(=O)n2c3ccc(Br)cc3c3nc4ccccc4nc32)cc1 | > 100 µM | > 100 µM | 57.8 µM | > 100 µM | > 100 µM | > 100 µM | > 100 µM | > 100 µM |  |  |  |  |  |  |  |  | 
[Cl][Sn]([c]1ccccc1)([c]1ccccc1)[c]1ccccc1 | 0.156 µM |  | 0.865 µM and 0.196 µM |  |  | 0.325 µM and 0.242 µM and 0.158 µM | 0.114 µM and 0.0651 µM | 0.104 µM and 0.0229 µM | 0.282 µM | 0.968 µM | 0.029 µM | 0.316 µM and 0.0531 µM | 0.25 µM and 0.109 µM and 0.0284 µM | 0.642 µM and 0.244 µM and 0.0847 µM | 0.166 µM and 0.114 µM and 0.0408 µM | 0.031 µM and 0.0142 µM | 0.0303 µM and < 0.01 µM
CC(C)=NN/C(=N\S(=O)(=O)c1ccc(Oc2cccc(Cl)c2C#N)cc1)Nc1ccc(Cl)cc1 | > 100 µM | > 100 µM | > 100 µM | > 100 µM | > 100 µM | > 100 µM | > 100 µM | > 100 µM |  | > 100 µM |  |  |  |  |  |  | 
Cc1csc(NC23CC4CC(CC(C4)C2)C3)[n+]1C(P(=O)([O-])O)P(=O)(O)O (stereo not drawn) | > 100 µM | > 100 µM | > 100 µM | > 100 µM | > 100 µM | > 100 µM |  | > 100 µM |  | > 100 µM |  |  |  | > 100 µM |  |  | 
CC1CCCC2(CC[N+](C)(CCC[N+](C)(C)C)CC2)C1 (stereo not drawn) |  | > 100 µM | > 100 µM | > 100 µM | > 100 µM | > 100 µM | > 100 µM | > 100 µM |  | > 100 µM |  |  |  | > 100 µM |  |  | 
COc1cc2ccc(=O)oc2cc1O | 328 µM | > 625 µM | 423 µM |  | 139 µM | 302 µM | 282 µM | > 625 µM |  |  |  |  |  | 201 µM |  |  | 
NC(=O)c1cccc([N+](=O)[O-])c1 | > 100 µM |  | > 100 µM | > 100 µM | > 100 µM | > 100 µM | > 100 µM | > 100 µM |  |  |  |  |  | > 100 µM |  |  | 
O=S(=O)(c1ccc(NC2=NC(c3ccc(O)cc3)(c3ccccc3O)c3ccccc32)cc1)c1ccc(NC2=NC(c3ccc(O)cc3)(c3ccccc3O)c3ccccc32)cc1 (stereo not drawn) | > 100 µM | 25.2 µM | 22.2 µM | > 29.2 µM | 47.5 µM | > 100 µM | > 29.9 µM | > 100 µM |  |  |  |  |  | > 100 µM |  |  | 
CCCC(=O)NC(Nc1ccc(S(=O)(=O)Nc2cc(C)on2)cc1)(C(=O)OCC)C(F)(F)F (stereo not drawn) | > 100 µM | > 100 µM | > 100 µM | > 100 µM |  | > 100 µM | > 100 µM | > 100 µM |  | > 100 µM |  |  |  | > 100 µM |  |  | 
CC(=O)OCC1OC(SC2=N/C(=C\c3ccc(Br)s3)C(=O)N2CN2CCOCC2)C(OC(C)=O)C(OC(C)=O)C1OC(C)=O (stereo not drawn) |  | 28.3 µM | 46.9 µM |  | 38.6 µM | 33.5 µM | 32.2 µM | 38.9 µM |  | 38.8 µM |  |  |  |  |  |  | 
COP(=O)(OC)C(Cc1cn(C(C)=O)c2ccccc12)C(=O)O (stereo not drawn) | > 100 µM | > 100 µM | > 100 µM | > 100 µM | > 100 µM | > 100 µM | > 100 µM | > 100 µM |  |  |  |  |  |  |  |  | 
